Experimental data as given in patent US4764528A, “2,4-pentadienoic acid derivatives and platelet aggregation inhibitors containing the same” (Teruo Kabushiki Kaisha, priority 1986, dated 1988).
Where two headings read alike, the source gives them in different places.

Tests used:
[1] = tested on: platelet aggregation; experiment: Inhibition of platelet aggregation in rabbit platelet-rich plasma (Born's turbimetry); assay type: cell-based; settings: Oryctolagus cuniculus
Procedure: Using a syringe containing 3.8% sodium citrate solution (1 volume), 9 volumes of blood is drawn from the carotid artery of a rabbit. Said blood is centrifuged to give platelet-rich plasma (PRP: 7×10^5 /μl).
In a cuvette is placed 250 ul of said PRP, followed by incubation in a thermostat at 37° C. for 2 min. Then, 20 μl of physiological saline buffer solution of a 2,4-pentadienoic acid derivative to be tested is added, and the mixture is incubated for 3 min. A platelet-aggregation inducer, an arachidonic acid solution, a collagen solution or an ADP solution is then added, and platelet aggregation is measured by the Born's turbimetry (which is described, for example, in Journal of Physiology, vol. 168, p. 178 (1968)). 50% Inhibitory concentration of the platelet aggregation caused by arachidonic acid (60 μmol), collagen (10 μg/ml) or ADP (5 μmol) is shown in Table 5 in comparison with prostaglandin I2, aspirin or dipyridamol.
50% Inhibitory concentration as indicated in Table 5 means the concentration of a 2,4-pentadienoic acid derivative needed for inhibiting the platelet aggregation by 50% by the introduction of said 2,4-pentadienoic acid derivative, taking the platelet aggregation in the absence of 2,4-pentadienoic acid derivatives of the invention as 100%.

[2] = unstable vinylether group in the molecule; cited from earlier work
[3] = aggregation induced by ADP (5 μmol), rabbit PRP, 37° C., 3 min preincubation, read-out: Antiplatelet activity, 50% Inhibitory concentration, ADP
[4] = aggregation induced by arachidonic acid (60 μmol), rabbit PRP, 37° C., 3 min preincubation, read-out: Antiplatelet activity, 50% Inhibitory concentration, Arachidonic acid
[5] = aggregation induced by collagen (10 μg/ml), rabbit PRP, 37° C., 3 min preincubation, read-out: Antiplatelet activity, 50% Inhibitory concentration, Collagen

OCCN(CCO)c1nc(N2CCCCC2)c2nc(N(CCO)CCO)nc(N3CCCCC3)c2n1 [dipyridamol, reference compound]
IC50 [1, 3]: 470 µM
IC50 [1, 4]: ≥ 1000 µM

CCCCC[C@H](O)/C=C/[C@@H]1[C@H]2CC(C/C=C/C=C/C(=O)O)=C[C@H]2C[C@H]1O [Example 6, 3-(5-carboxy-trans, trans-2,4-pentadienyl)-6-exo-(3α-hydroxy-trans-1-octenyl)-7-endo-hydroxybicyclo[3.3.0]oct-2-ene]
IC50 [1, 3]: 0.7 µM
IC50 [1, 4]: 0.82 µM
IC50 [1, 5]: 0.5 µM

CC(=O)Oc1ccccc1C(=O)O [aspirin, reference compound]
IC50 ([1]; read-out: Antiplatelet activity, 50% Inhibitory concentration, ADP): ≥ 1000 µM
IC50 ([1]; read-out: Antiplatelet activity, 50% Inhibitory concentration, Arachidonic acid): 17 µM
IC50 ([1]; read-out: Antiplatelet activity, 50% Inhibitory concentration, Collagen): 200 µM

CCCCC[C@H](O)/C=C/[C@@H]1[C@H]2C/C(=C/CCCC(=O)O)O[C@H]2C[C@H]1O [prostaglandin I2, reference compound]
half life in the living body [2]: short
IC50 [1, 3]: 0.38 µM
IC50 [1, 4]: 0.25 µM
IC50 [1, 5]: 0.22 µM

O=C(O)/C=C/C=C/CC1=C[C@H]2C[C@@H](O)[C@H](/C=C/[C@@H](O)C3CCCC3)[C@H]2C1 [Example 9]
IC50 [1, 3]: 1.4 µM
IC50 [1, 4]: 1.8 µM
IC50 [1, 5]: 1.1 µM

CCCCC[C@H](O)/C=C/[C@@H]1[C@H]2CC(/C=C/C=C/C(=O)O)=C[C@H]2C[C@H]1O [Example 1, 3-(4-carboxy-trans, trans-1,3-butadienyl)-6-exo-(3α-hydroxy-trans-1-octenyl)-7-endo-hydroxybicyclo[3.3.0]oct-2-ene]
IC50 [1, 3]: 0.52 µM
IC50 [1, 4]: 0.47 µM
IC50 [1, 5]: 0.32 µM

O=C(O)/C=C/C=C/C1=C[C@H]2C[C@@H](O)[C@H](/C=C/[C@@H](O)C3CCCC3)[C@H]2C1 [Example 4]
IC50 [1, 3]: 0.39 µM
IC50 [1, 4]: 0.29 µM
IC50 [1, 5]: 0.23 µM
